Test results reported in patent US4226610A, “Herbicidal compounds, preparation thereof and herbicides containing the same” (Meiji Selka Kaisha, Ltd., priority 1978, dated 1980).
Where a name gives a salt, the structure may show the parent alone.

System: water hyacinth
Assay: Experiment 5 foliar application to water hyacinths
Assay type: in vivo, Eichhornia crassipes Solms
Set-up: key to Killing index: 0 = no effect, 5 = death
Conditions: for Reproduction-inhibiting effect: 3 months; for Killing index: 21 days
Excerpt: The detail of the assessment made in the following Experiments of the invention was as follows:
Four months after treatment, evaluation was made for inhibition of reproduction expressed in terms of symbols ranging from (-) to (+++) where (-) means no reproduction, namely complete suppression of reproduction, (±) remarkable suppression of reproduction; (+) considerable suppression of reproduction; (++) medium supprestion of reproduction; and (+++) no suppression of reproduction.
Water was placed in 20 cm.×30 cm. plastic vessels and a liquid fertilizer was added thereto. Two water hyacinths were floated in each vessel.
0.1 or 0.2% aqueous solutions of each of the compounds of the invention listed in Table 7 were sprayed by foliar application in an amount of 100 liter per 10 are. As a surfactant, 0.1% of octylphenyl polyoxyethanol was added.
The killing index (0, no effect; 5, death) after 21 days and 3 months, and the reproduction-inhibiting effect (-, no reproduction; +++, maximum reproduction) after 3 months were determined.

| Structure (SMILES) | Reproduction-inhibiting effect (0.1%) | Reproduction-inhibiting effect (0.2%) | Killing index (0.2%) |
| --- | --- | --- | --- |
| CP(=O)(O)CCC(N)C(=O)O (racemic) [DL-AMPB disodium salt] | ++ | ± |  |
| C[C@H](NC(=O)[C@H](C)NC(=O)[C@@H](N)CCP(C)(=O)O)C(=O)O [SF-1293 disodium salt] | + | - | 4.5 |
| CP(=O)(O)CC[C@H](N)C(=O)O [L-AMPB disodium salt] | ± | - |  |
| CP(=O)(O)CCC(N)C(=O)O (racemic) [DL-AMPB monoisopropylammonium salt] | ++ | ± |  |
| CP(=O)(O)CCC(N)C(=O)O (racemic) [DL-AMPB dipotassium salt] | ++ | ± |  |
| C[C@H](NC(=O)[C@H](C)NC(=O)[C@@H](N)CCP(C)(=O)O)C(=O)O [SF-1293 monodiethylammonium salt] | + | - | 4.5 |
| CP(=O)(O)CCC(N)C(=O)O (racemic) [DL-AMPB diammonium salt] | ++ | ± |  |
| CP(=O)(O)CCC(N)C(=O)O (racemic) [DL-AMPB mono-n-butylammonium salt] | ++ | ± |  |
| CP(=O)(O)CCC(N)C(=O)O (racemic) [DL-AMPB, DL-2-amino-4-methylphosphinobutanoic acid] | ++ | ± |  |
| CP(=O)(O)CC[C@H](N)C(=O)O [L-AMPB diammonium salt] | ± | - |  |
| CP(=O)(O)CC[C@H](N)C(=O)O [L-AMPB dipotassium salt] | ± | - |  |
| CP(=O)(O)CC[C@H](N)C(=O)O [L-AMPB, L-2-amino-4-methylphosphinobutanoic acid] | ± | - |  |
| C[C@H](NC(=O)[C@H](C)NC(=O)[C@@H](N)CCP(C)(=O)O)C(=O)O [SF-1293 diammonium salt] | + | - | 4.5 |
| C[C@H](NC(=O)[C@H](C)NC(=O)[C@@H](N)CCP(C)(=O)O)C(=O)O [SF-1293 monopotassium salt] | + | - | 4.5 |
| C[C@H](NC(=O)[C@H](C)NC(=O)[C@@H](N)CCP(C)(=O)O)C(=O)O [SF-1293, (L-2-amino-4-methylphosphinobutyryl)-L-alanyl-L-alanine] | + | - | 4.5 |
| CP(=O)(O)CCC(N)C(=O)O (racemic) [DL-AMPB monopotassium salt] | ++ | ± |  |
| CP(=O)(O)CC[C@H](N)C(=O)O [L-AMPB mono-n-butylammonium salt] | ± | - |  |
| CP(=O)(O)CC[C@H](N)C(=O)O [L-AMPB monopotassium salt] | ± | - |  |
| C[C@H](NC(=O)[C@H](C)NC(=O)[C@@H](N)CCP(C)(=O)O)C(=O)O [SF-1293 mono-n-butylammonium salt] | + | - | 4.5 |
| CP(=O)(O)CCC(N)C(=O)O (racemic) [DL-AMPB monodiethylammonium salt] | ++ | ± |  |
| CP(=O)(O)CC[C@H](N)C(=O)O [L-AMPB monoisopropylammonium salt] | ± | - |  |
| C[C@H](NC(=O)[C@H](C)NC(=O)[C@@H](N)CCP(C)(=O)O)C(=O)O [SF-1293 monodiisopropylammonium salt] | + | - | 4.5 |
| C[C@H](NC(=O)[C@H](C)NC(=O)[C@@H](N)CCP(C)(=O)O)C(=O)O [SF-1293 dipotassium salt] | + | - | 4.5 |
| CP(=O)(O)CC[C@H](N)C(=O)O [L-AMPB monodiethylammonium salt] | ± | - |  |
